Tests used:
[1] = type: in vitro ADME; conditions: topical or ocular, 5 microgram per mL
Description: Liver microsomal stability assays were conducted at 1 mg per mL liver microsome protein with an NADPH-generating system in 2% NaHCO3 (2.2 mM NADPH, 25.6 mM glucose 6-phosphate, 6 units per mL glucose 6-phosphate dehydrogenase and 3.3 mM MgCl2). Test compounds were prepared as solutions in 20% acetonitrile-water and added to the assay mixture (final assay concentration 5 microgram per mL) and incubated at 37° C. Final concentration of acetonitrile in the assay were <1%. Aliquots (50 μL) were taken out at times 0, 15, 30, 45, and 60 minutes, and diluted with ice cold acetonitrile (200 μL) to stop the reactions. Samples were centrifuged at 12000 RPM for 10 minutes to precipitate proteins. Supernatants were transferred to microcentrifuge tubes and stored for LC/MS/MS analysis of the degradation half-life of the test compounds.

[2] = cited from earlier work

increase in the degradation half-life as compared to the non-isotopically enriched drug (udenafil) [1] | SMILES | side effects of chromatopsia, such as sensitivity to light and blurred vision, in patients taking the drug [2] [%]
12-15% | [2H]C([2H])(CC)c1nn(C)c2c(=O)[nH]c(-c3cc(S(=O)(=O)NCCC4CCCN4C)ccc3OCCC)nc12 (stereo not drawn) [Example 5, d2-3-(1-Methyl-7-oxo-3-propyl-6,7-dihydro-1H-pyrazolo[4,3-d]pyrimidin-5-yl)-N-[2-(1-methyl-pyrrolidin-2-yl)-ethyl]-4-propoxy-benzenesulfonamide] | 
12-15% | [2H]C([2H])(CC)c1nn(C([2H])([2H])[2H])c2c(=O)[nH]c(-c3cc(S(=O)(=O)NCCC4CCCN4C)ccc3OCCC)nc12 (stereo not drawn) [Example 4, d5-3-(1-Methyl-7-oxo-3-propyl-6,7-dihydro-1H-pyrazolo[4,3-d]pyrimidin-5-yl)-N-[2-(1-methyl-pyrrolidin-2-yl)-ethyl]-4-propoxy-benzenesulfonamide] | 
 | CN1CC(=O)N2[C@H](c3ccc4c(c3)OCO4)c3[nH]c4ccccc4c3C[C@@H]2C1=O [tadalafil] | < 0.1

Reference: patent publication US20080194529A1 (AUSPEX PHARMACEUTICALS, INC., priority 2007, published 2008)
